Assay results reported in ChEMBL document CHEMBL5380808, “Design, Synthesis, and Biological Activity of Marinacarboline Analogues as STAT3 Pathway Inhibitors for Docetaxel-Resistant Triple-Negative Breast Cancer” (J Med Chem, 2023).
Calls of active or inactive are those of the source. No cut-off for these calls is given here.

How the values were obtained:
MDA-MB-231 [1] = experiment: Antiproliferative activity against human MDA-MB-231 cells assessed as reduction in cell viability incubated for 72 hrs by sulforhodamine B assay; type: functional, cell-based; conditions: MDA-MB-231, 72 h
[2] = Cytotoxicity against human MRC5 cells assessed as reduction in cell viability incubated for 72 hrs by sulforhodamine B assay; type: toxicity, cell-based
[3] = Selectivity index, ratio of IC50 for cytotoxicity against human MRC5 cells to IC50 for antiproliferative activity against human MDA-MB-231 cells; type: toxicity, cell-based; conditions: MRC5 cells and MDA-MB-231 cells, read-out: Ratio IC50
[4] = Antiproliferative activity against docetaxel-resistant human MDA-MB-231-DTR cells assessed as reduction in cell viability incubated for 72 hrs by sulforhodamine B assay; type: functional, cell-based; conditions: MDA-MB-231, 72 h
[5] = target: Signal transducer and activator of transcription 3 (Homo sapiens) (UniProt P40763); experiment: Inhibition of STAT3 phosphorylation at Y705 residue in human MDA-MB-231 cells assessed as decrease in phosphorylated STAT3 level at 5 uM incubated for 24 hrs by Western blot analysis; type: cell-based
[6] = target: Signal transducer and activator of transcription 3 (Homo sapiens) (UniProt P40763); experiment: Binding affinity to STAT3 in docetaxel-resistant human MDA-MB-231-DTR cells at 20 uM incubated for 1 hrs by streptavidin bead based pull-down assay; type: cell-based
MDA-MB-231 [7] = experiment: Antiproliferative activity against human MDA-MB-231 cells assessed as reduction in cell viability incubated for 72 hrs by MTT assay; type: functional, cell-based; conditions: MDA-MB-231, 72 h
[8] = Antiproliferative activity against […] cells assessed as reduction in cell viability incubated for 72 hrs by MTT assay; type: functional, cell-based
MDA-MB-231 [9] = experiment: Antitumor activity against docetaxel-resistant human MDA-MB-231-DTR cells xenografted in BALB/c mouse assessed as tumor growth inhibition at 5 mg/kg, ip daily for 12 days; type: functional, organism-based; conditions: time 12.0 day

Chain of Signal transducer and activator of transcription 3 (Homo sapiens) (P40763 whole entry): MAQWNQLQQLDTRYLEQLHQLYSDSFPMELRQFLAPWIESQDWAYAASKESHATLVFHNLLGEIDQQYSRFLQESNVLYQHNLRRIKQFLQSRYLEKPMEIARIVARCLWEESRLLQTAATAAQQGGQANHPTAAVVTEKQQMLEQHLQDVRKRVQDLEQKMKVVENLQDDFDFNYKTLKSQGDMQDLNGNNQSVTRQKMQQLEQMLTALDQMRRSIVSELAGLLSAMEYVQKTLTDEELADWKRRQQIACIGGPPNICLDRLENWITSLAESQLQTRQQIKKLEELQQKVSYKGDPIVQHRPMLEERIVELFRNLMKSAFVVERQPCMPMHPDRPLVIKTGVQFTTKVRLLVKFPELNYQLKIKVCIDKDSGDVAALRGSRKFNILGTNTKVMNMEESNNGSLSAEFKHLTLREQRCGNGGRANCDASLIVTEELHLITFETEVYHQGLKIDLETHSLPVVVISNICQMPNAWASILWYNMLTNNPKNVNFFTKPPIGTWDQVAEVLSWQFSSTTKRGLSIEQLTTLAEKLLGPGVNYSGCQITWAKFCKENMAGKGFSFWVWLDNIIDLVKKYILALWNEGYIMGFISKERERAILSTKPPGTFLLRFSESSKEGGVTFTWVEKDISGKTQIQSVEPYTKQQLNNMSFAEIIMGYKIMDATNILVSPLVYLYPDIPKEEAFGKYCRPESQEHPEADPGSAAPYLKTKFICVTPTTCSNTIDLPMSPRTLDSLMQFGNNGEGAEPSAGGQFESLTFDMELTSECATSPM

SMILES	IC50 (MDA-MB-231 [1])	IC50 at 72 h [2]	selectivity ratio [3]	also measured
CC(=O)c1nc(C(=O)Nc2ccc3[nH]ccc3c2)cc2c1[nH]c1ccccc12	6.98 µM	48.2 µM	6.91	–
O=C(NCCc1c[nH]c2ccccc12)c1cc2c([nH]c3ccccc32)c(-c2ccc(O)cc2)n1	5.68 µM	46.3 µM	8.15	–
CC(=O)c1nc(C(=O)OCCc2c[nH]c3ccccc23)cc2c1[nH]c1ccccc12	9.52 µM	38.3 µM	4.02	IC50 [4]: 8.48 µM
O=C(NCc1ccc(O)cc1)c1cc2c([nH]c3ccccc32)c(C(=O)c2ccc(O)cc2)n1	> 50 µM	> 50 µM	–	–
COc1ccc2[nH]cc(CCNC(=O)c3cc4c([nH]c5ccccc54)c(C(C)=O)n3)c2c1	10.8 µM	39.3 µM	3.62	–
O=C(NCCc1c[nH]c2ccccc12)c1cc2c([nH]c3ccccc32)c(-c2ccccc2)n1	19.2 µM	> 50 µM	> 2.6	–
COc1ccc(NC(=O)c2cc3c([nH]c4ccccc43)c(C(C)=O)n2)cc1	> 50 µM	> 50 µM	–	–
CNC(=O)c1cc2c([nH]c3ccccc32)c(C(C)=O)n1	> 50 µM	> 50 µM	–	–
O=C(NCCc1c[nH]c2ccccc12)c1cc2c([nH]c3ccccc32)c(C(=O)c2ccc(O)cc2)n1	6.82 µM	39.3 µM	5.76	inhibition [5]: Active; IC50 [4]: 6.62 µM
COC(=O)c1cc2c([nH]c3ccccc32)c(C(C)=O)n1	> 50 µM	> 50 µM	–	–
CC(=O)c1nc(C(=O)NC(C)C)cc2c1[nH]c1ccccc12	37.3 µM	> 50 µM	> 1.34	–
O=C(CCCC[C@@H]1SC[C@@H]2NC(=O)N[C@@H]21)NCCn1cc(COc2ccc3[nH]c4c(C(=O)c5ccc(Br)cc5)nc(C(=O)NCCc5c[nH]c6ccccc56)cc4c3c2)nn1	–	–	–	Activity [6]: Active
CC(=O)O[C@H]1C(=O)[C@@]2(C)[C@H]([C@H](OC(=O)c3ccccc3)[C@]3(O)C[C@H](OC(=O)[C@H](O)[C@@H](NC(=O)c4ccccc4)c4ccccc4)C(C)=C1C3(C)C)[C@]1(OC(C)=O)CO[C@@H]1C[C@@H]2O [PACLITAXEL]	–	–	–	IC50 (MDA-MB-231 [7]): 70 nM; IC50 [8]: 4.68 µM; Activity (MDA-MB-231 [9]): inactive
O=C(NCCc1c[nH]c2ccccc12)c1cc2c([nH]c3ccccc32)c(-c2ccc(Br)cc2)n1	7.06 µM	48.8 µM	6.19	inhibition [5]: Active; IC50 [4]: 6.81 µM
CC(=O)c1nc(C(=O)NCCCN(C)C)cc2c1[nH]c1ccccc12	11.3 µM	> 50 µM	> 4.41	–
CCCN(CCC)C(=O)c1cc2c([nH]c3ccccc32)c(C(C)=O)n1	> 50 µM	> 50 µM	–	–
O=C(NCCc1c[nH]c2ccccc12)c1cc2c([nH]c3ccccc32)c(C(=O)c2ccccc2Br)n1	> 50 µM	> 50 µM	–	–

SMILES	IC50 (MDA-MB-231 [1])	IC50 at 72 h [2]	selectivity ratio [3]	also measured
Cc1ccc(C(=O)c2nc(C(=O)NCCc3c[nH]c4ccccc34)cc3c2[nH]c2ccccc23)cc1	8.29 µM	41.2 µM	4.98	–
CC(=O)c1nc(C(=O)Nc2ccc(C(F)(F)F)cc2)cc2c1[nH]c1ccccc12	> 50 µM	> 50 µM	–	–
O=C(NCCc1c[nH]c2ccccc12)c1cc2c([nH]c3ccccc32)c(C(=O)c2ccccc2)n1	21.2 µM	31.9 µM	1.5	–
O=C(NCCc1c[nH]c2ccccc12)c1cc2c([nH]c3ccccc32)c(C(=O)c2cccc(Br)c2)n1	> 50 µM	> 50 µM	–	–
CCCCNC(=O)c1cc2c([nH]c3ccccc32)c(C(C)=O)n1	> 50 µM	> 50 µM	–	–
CCCC(=O)c1nc(C(=O)NCCc2c[nH]c3ccccc23)cc2c1[nH]c1ccccc12	> 50 µM	> 50 µM	–	–
CC(=O)c1nc(C(=O)N(Cc2ccccc2)Cc2ccccc2)cc2c1[nH]c1ccccc12	20.8 µM	> 50 µM	> 2.4	–
COc1cc([C@@H]2c3cc4c(cc3[C@@H](O[C@@H]3O[C@@H]5CO[C@@H](C)O[C@H]5[C@H](O)[C@H]3O)[C@H]3COC(=O)[C@H]23)OCO4)cc(OC)c1O [ETOPOSIDE]	3.66 µM	13.5 µM	3.68	–
CC(=O)c1nc(C(=O)Nc2ccc(N)cc2)cc2c1[nH]c1ccccc12	10.8 µM	> 50 µM	> 4.63	–
CC(=O)c1nc(C(=O)NCCc2c[nH]c3ccc(Cl)cc23)cc2c1[nH]c1ccccc12	5.94 µM	36.5 µM	6.14	–
CC(=O)c1nc(C(=O)NCCCO)cc2c1[nH]c1ccccc12	16.5 µM	41.2 µM	2.5	–
CC(=O)c1nc(C(=O)N(C)C)cc2c1[nH]c1ccccc12	> 50 µM	> 50 µM	–	–
O=C(NCCc1c[nH]c2ccccc12)c1cc2c([nH]c3ccccc32)c(C(=O)c2ccc(Cl)cc2)n1	14.7 µM	> 50 µM	> 3.4	–
Cc1ccc(-c2nc(C(=O)NCCc3c[nH]c4ccccc34)cc3c2[nH]c2ccccc23)cc1	6.89 µM	42 µM	6.1	–
O=C(NCc1ccc(O)cc1)c1cc2c([nH]c3ccccc32)c(C(=O)c2ccc(Br)cc2)n1	> 50 µM	> 50 µM	–	–
CC(=O)c1nc(C(=O)O)cc2c1[nH]c1ccccc12	> 50 µM	> 50 µM	–	–
COc1ccc(CCNC(=O)c2cc3c([nH]c4ccccc43)c(C(C)=O)n2)cc1 [MARINACARBOLINE A]	> 50 µM	> 50 µM	–	–

Further lines, with some results ahead:

IC50 (MDA-MB-231 [1])	SMILES	IC50 at 72 h [2]	selectivity ratio [3]	also measured
11.3 µM	CC(=O)c1nc(C(=O)NCCc2c(C)[nH]c3ccccc23)cc2c1[nH]c1ccccc12	41.9 µM	3.71	–
48.3 µM	CC(=O)c1nc(C(=O)NCc2ccc(Cl)cc2)cc2c1[nH]c1ccccc12	> 50 µM	> 1.04	–
> 50 µM	CC(=O)c1nc(C(=O)NCCc2ccc(O)cc2)cc2c1[nH]c1ccccc12	> 50 µM	–	–
> 50 µM	CC(=O)c1nc(C(=O)Nc2ccccc2)cc2c1[nH]c1ccccc12	> 50 µM	–	–
34.2 µM	CC(=O)c1nc(C(=O)NCc2ccc(C(C)(C)C)cc2)cc2c1[nH]c1ccccc12	> 50 µM	> 1.46	–
> 50 µM	CC(=O)c1nc(C(=O)NCCCc2c[nH]c3ccccc23)cc2c1[nH]c1ccccc12	> 50 µM	–	–
7.71 µM	CC(=O)c1nc(C(=O)NCCc2c[nH]c3ccccc23)cc2c1[nH]c1ccccc12 [MARINACARBOLINE D]	27.2 µM	3.53	IC50 [4]: 8.21 µM
10.3 µM	CC(=O)c1nc(C(=O)NCc2ccccc2O)cc2c1[nH]c1ccccc12	38.3 µM	3.7	–
16.3 µM	CC(=O)c1nc(C(=O)NCc2ccc(N)cc2)cc2c1[nH]c1ccccc12	> 50 µM	> 3.07	IC50 [4]: 15.5 µM
24.7 µM	CC(=O)c1nc(C(=O)NCc2ccc(F)cc2)cc2c1[nH]c1ccccc12	> 50 µM	> 2.02	–
> 50 µM	CC(=O)c1nc(C(=O)NCc2ccccc2)cc2c1[nH]c1ccccc12	> 50 µM	–	–
> 50 µM	CC(=O)c1nc(C(=O)NCCc2ccccc2)cc2c1[nH]c1ccccc12	> 50 µM	–	–
14.9 µM	CC(=O)c1nc(C(=O)NCc2ccc3[nH]ccc3c2)cc2c1[nH]c1ccccc12	> 50 µM	> 3.36	–
27.7 µM	CC(=O)c1nc(C(=O)NCc2cccc(O)c2)cc2c1[nH]c1ccccc12	> 50 µM	> 1.81	–
> 50 µM	CC(=O)c1nc(C(=O)NCc2ccc(C#N)cc2)cc2c1[nH]c1ccccc12	> 50 µM	–	–
3.51 µM	CC(=O)c1nc(C(=O)NCc2ccc(O)cc2)cc2c1[nH]c1ccccc12	> 50 µM	> 14.2	IC50 [4]: 3.66 µM
14.3 µM	CC(=O)c1nc(C(=O)NCc2c[nH]c3ccccc23)cc2c1[nH]c1ccccc12	> 50 µM	> 3.51	–
16.8 µM	COc1ccc(CNC(=O)c2cc3c([nH]c4ccccc43)c(C(C)=O)n2)cc1	> 50 µM	> 2.97	–
